# Results reported in patent publication US20210236425A1, “NEW TREATMENT OF INTERSTITIAL LUNG DISEASES” (INIM PHARMA AB, priority 2018, published 2021).
# Key:
# [1] = Dissolution kinetics in SLF with Tween 80, non-sink conditions; format: physicochemical; settings: SLF with 1 wt % Tween 80, 80 mg dosage
# Procedure: Given that thalidomide rapidly recrystallizes in solution, an experiment was conducted in the presence of a surfactant to stabilize the dissolved drug.
# Tween 80 (1 wt %; Sigma) was added in the dissolution bath in SLF media. The dosage was increased to 80 mg to investigate the dissolution kinetics at high drug concentration, to simulate dissolution in non-sink conditions.
# [2] = Dissolution kinetics in SLF, USP2 apparatus; format: physicochemical; settings: SLF pH 7.4, 37° C., 5 mg in 500 mL
# Procedure: The dissolution kinetics of the 3 different loading samples described in Example 5 were characterized in SLF (pH 7.4; made up with the salts NaCl, NaHCO3, KCl, MgCl2, CaCl2, Na2SO4, sodium citrate dihydrate, NaH2PO4 (all from Sigma)) at 37° C. using a USP2 dissolution apparatus with stirring speed 50 rpm. Free, unloaded thalidomide was used as control. Concentration of drug at set times after release was measured by a UV/vis spectrometer (Cecil 3021) at 220 nm.
# The dose of thalidomide was calculated as 5 mg of thalidomide in 500 mL of SLF.
smiles,measurement,setting,value
"O=C1CCC(N2C(=O)c3ccccc3C2=O)C(=O)N1 (centres unmarked) [free drug, thalidomide]",time to reach Cmax,[1],30 min
same,time in which Cmax was achieved,[2],30 min
